Assay results from EP3568131B1, “COMPOSITION COMPRISING 7-HYDROXYMATAIRESINOL FOR USE IN THE TREATMENT AND IN THE PREVENTION OF TRICHOLOGICAL DISEASES OF INFLAMMATORY AND/OR HORMONAL ORIGIN” (Sinerga Group S.r.l., priority 2017, dated 2018).
Like-named read-outs stand apart in the source and are kept apart here.

How the values were obtained:
[1] = tested on: IL-1α; assay: IL-1α release (ELISA) after SLS-induced stress on reconstituted epidermis; assay type: cell-based, human; details: for IL-1α % inhibition: vs positive control
Description: The study concerns the in vitro evaluation of the anti-inflammatory potential of 7-hydroxymatairesinol against the inflammatory reaction induced by moderate irritants such as sodium lauryl sulphate (SLS), using a model of human skin cells grown in vitro in multilayer.
The inhibition of the cytokine IL-1α release caused by SLS is investigated by specific ELISA tests in the presence of the tested substance compared to untreated skin samples.
(§1) The cell model used for in vitro tests is represented by a three-dimensional system of reconstituted human epidermis in vitro.
(§2) This three-dimensional cellular model is made up of normal human primary keratinocytes, left to grow in vitro in order to simulate the multi-layered architecture of the human epidermis, with a well-differentiated stratum corneum. The model was purchased from CELLSYSTEMS (Troisdorf, batch 100-AE1818-1).
(§3) The skin irritation characterized by the release of IL-1α was caused by an epidermis pre-treatment for 60 minutes with SLS 0.25%.
(§4) Subsequently, 30µl of diluted sample were placed on two units and the exposure was extended for 24 hours at 37°C, 5% CO2. The sample was diluted to 0.25% in phosphate buffer.
(§5) As a negative control, two units of epidermis were treated with phosphate buffer (PBS), as a positive control two units were treated for 60' with 0.25% SLS. The test was carried out in duplicate.
For the analysis of IL-1α, samples of culture medium were taken at 6 and 24 hours. The maintenance medium of the units treated with PBS and the medium of two non-irritated skin units treated only with the sample were taken as negative control, whereas the culture medium of two skin units treated with the 0.25% SLS solution was used as a positive control.
In this study, IL-1α was dosed using the direct-type ELISA (Enzyme-linked immunosorbent assay) method, i.e. the colour development was directly proportional to the amount of cytokines in the culture medium.
The reading was carried out at 450 nm. The sensitivity limit of this test was less than 10 pg/ml.
The IL-1α concentration was determined using a standard curve as a reference. The inhibition of IL1-α release was determined as: % IL-1α inhibition: 100- (pg/ml IL-1α released from the irritated sample/pg/ml IL-1α positive control)* 100

[2] = MTT cytotoxicity test on reconstituted 3D epidermis; assay type: cell-based; details: human
Protocol: • Cytotoxicity through the MTT test at the end of incubation: cell survival test with 3D human epidermis reconstituted in vitro for the evaluation of the cytotoxic potential caused by the sample. • Inhibition of the release of cellular mediators of inflammation (IL-1α) after stress induced with SLS.
as §1, §2, §3, §4, §5
At the end of the exposure, the sample and the references were removed by washing with phosphate buffer (PBS) and the cell viability was assessed.
The epidermis was incubated for 3h at 37°C with a lmg/ml solution of MTT (3- [4,5-dimethylthiazol-2-yl] -2,5-diphenyl tetrazolium bromide).
Then the solution was removed and replaced with isopropanol with subsequent 2 h incubation at room temperature.
Two aliquots of each sample were transferred to a 96-well plate for reading the absorbance, which was carried out at the wavelength of 570 nm, with a colorimeter (Tecan, model Sunrise remote) equipped with a plate reader.
The result was expressed as a cellular viability in percent according to the formula: % cell viability = [OD (570 nm) tested sample/OD (570 nm) CN] x 100

[3] = tested on: human hair dermal papilla cells (HHDPC); assay: MTT cell viability test after cell cycle synchronization (cell proliferation); assay type: cell-based; details: for viability at 200 µg/mL / viability at 1000 µg/mL: Homo sapiens, HHDPC, vs negative control; for viability at 200 µg/mL: 0.2 mg/ml of 5% glycerine solution; for viability at 1000 µg/mL: 1 mg/ml of 5% glycerine solution
Description: (§6) The purpose of the test is quantitatively establishing the effects of 7-hydroxymatairesinol (HMR) on cell proliferation and on the synthesis of total proteins in human fibroblasts of the dermal papilla through the cell viability test (MTT test) after cycle synchronization, and establishing the protein dosage at different exposure times and at different sub-toxic sample dilutions.
(§7) Dermal papilla cells derived from human hair follicle (HHDPC: human hair dermal papilla cells) with fibroblastic morphology. The cells are cultured in DMEM containing 10% FBS and antibiotics.
(§8) The cells were seeded in 24-well plates and left to grow for 24h at 37°C and 5% CO2. Then they were deprived of the serum 6 hours before the experiment for cell cycle synchronization.
(§9) After 6 hours, fresh culture medium was added without serum but containing the sample to be tested in order to reach different final dilutions. The 5% glycerine-solubilized sample was dissolved in the culture medium. The test was carried out in triplicate.
(§10) After 24 and 48 hours of exposure, the MTT cell viability test and the total protein test using the Bradford method^1 were carried out on separate plates. Untreated cells were used as a negative control (CN), while cells treated with human insulin were used as a positive control (CP).
This method was originally developed by Mossman^2. After 24 and 48 hours of treatment, cell viability was evaluated by incubating the cells with MTT (3-[4,5-dimethylthiazol-2-yl]-2,5-diphenyl tetrazolium bromide) for 2 hours.
The precipitated formazan crystals were then extracted using isopropanol or DMSO and were spectrophotometrically quantified at 570 nm against 650 nm. The absorbance was read with a colorimeter (Tecan, model Sunrise remote) equipped with a plate reader subtracting the reading of the bottom.
The cell viability was expressed as a percentage according to the formula: % of cell viability = [OD(570nm−650nm)testedproduct/OD(570nm−650nm)CN] × 100 [formula] OD: Optical density

[4] = tested on: human fibroblasts of the dermal papilla (HHDPC); assay: Total protein dosage (Bradford method); assay type: cell-based; details: for activation at 1000 µg/mL: 1 mg/ml of 5% glycerine solution
Description: as §6, §7, §8, §9, §10
The protein dosage was carried out according to the Bradford method. At the end of the treatment, the cells were washed with sterile PBS and lysed by treatment with purified water at 4°C. The colouring reagent was added to the lysate. A standard curve of albumin titrated to 20, 40, 80 and 100 µg/ml was prepared in a similar manner.
Then 200 µl of each sample, controls and standards, each in triplicate, were transferred to a 96-well plate. The reading was carried out with a colorimeter (Tecan, Sunrise) equipped with a plate reader, at 595 nm.
To quantify proteins, a standard albumin calibration curve was drawn and sample concentrations were calculated using the interpolation curve formula and relative absorbances. The averages of the individual data were then calculated, and for each sample the percentage of increase in protein synthesis was calculated, with respect to the negative control: % protein synthesis increment = (μg/mlsampleprotein/μg/mlCN)∗100 [formula]

[5] = tested on: 5α-reductase; assay: Gene expression of 5α-reductase by qRT-PCR in testosterone-treated dermal papilla cells; assay type: cell-based; details: Homo sapiens, HHDPC, 48 h
Description: Measurement of the gene expression level of 5α-reductase by means of Real Time Polymerase Chain Reaction (qRT-PCR) in human cells of the dermal papilla with and without treatment with the sample. The purpose of the test is to highlight and quantify changes in gene expression of 5α-reductase levels in cell cultures exposed to treatment with the tested substance compared to controls of the same untreated cells. This enzyme is expressed in skin melanocytes, fibroblasts and keratinocytes and turns testosterone into di-hydro-testosterone, a key metabolite implicated in various skin disorders such as acne vulgaris, hirsutism, seborrhoea and androgenetic alopecia. After birth, the 5α-reductase enzyme (type 1) is expressed in multiple body areas, including liver, skin, scalp and prostate. 5α-reductase (type 2) is expressed in prostate, seminal vesicles, epididymis, liver, and, to a lesser extent, scalp and skin. In this test, the cells are previously treated with testosterone to induce 5α-reductase production and are exposed to various test substances for 48 hours. A titrated extract of Serenoa repens, a known pharmacologically active compound used to treat benign prostatic hyperplasia, is used as a positive control. The analysis is carried out through RT-qPCR (Real Time Quantitative Polymerase Chain Reaction), a very sensitive method for the detection and quantification of messenger RNA coding for the protein in analysis and therefore for the corresponding gene activation. RT-qPCR measures the fluorescence emitted by the amplicons produced during each PCR cycle. A culture of human dermal papilla (HHDPC) cells was used. The cells were grown in MEM containing 10% FBS and antibiotics. The cells were seeded in 12-well plates for 24 hours. Then they were treated for 24 hours with 10 ng/ml of testosterone. After this step, fresh culture medium containing the sample to be tested was added. The sample was dissolved directly in the culture medium. The concentrations of the sample to be tested were selected based on preliminary cytotoxicity. […] After precipitation and centrifugation (30' at 12,000 rpm at 4°C), the RNA was resuspended in 20 µl of sterile water and its concentration was determined by spectrophotometry. […] Changes in the gene expression profile are analysed by RT-qPCR using Syber Green as a fluorescent molecule. […] The detection of the fluorescence emitted in each cycle allows monitoring the PCR reaction during the exponential phase, namely where the first significant increases in the PCR product are related to the initial amount of template. […] Subsequently, data can be expressed as "fold change", namely as a ratio with respect to control (a) or as a percentage with respect to control (b). […]

[6] = 6 h, sample 0.25% after SLS 0.25% pre-treatment
[7] = 24 h, sample 0.25% after SLS 0.25% pre-treatment
[8] = increase on fibroblasts of human dermal papilla compared to untreated cells

**Q.** With `COc1cc(C[C@H]2C(=O)OC[C@@H]2[C@H](O)c2ccc(O)c(OC)c2)ccc1O` [HMR, 7-hydroxymatairesinol] as the molecule, how does the “IL-1α Mean” value [1, 6] read?
**A.** 19.72 pg/mL

**Q.** What about the IL-1α % inhibition [1, 6] of the same molecule?
**A.** 13.94%

**Q.** And the “IL-1α Mean” value ([1]; 6 h, sample 0.25% alone, non-irritated epidermis)?
**A.** 18.07 pg/mL

**Q.** What about the “IL-1α Mean” value [1, 7] of the same molecule?
**A.** 97.70 pg/mL

**Q.** What about the IL-1α % inhibition [1, 7] of the same molecule?
**A.** 51.32%

**Q.** And the “IL-1α Mean” value ([1]; 24 h, sample 0.25% alone, non-irritated epidermis)?
**A.** 26.40 pg/mL

**Q.** What about the viability at 24 h ([2]; sample 0.25% in phosphate buffer alone, 24 hours exposure, read-out: % average cell viability (ds)) of the same molecule?
**A.** 78.2%

**Q.** What about the viability at 24 h ([2]; sample 0.25%, 24 hours, after 60 minutes pre-treatment with SLS 0.25%, read-out: % average cell viability (ds)) of the same molecule?
**A.** 55.9%

**Q.** And the viability at 200 µg/mL ([3]; 24 h)?
**A.** 110%

**Q.** And the viability at 1000 µg/mL ([3]; 24 h)?
**A.** 99.7%

**Q.** And the viability at 200 µg/mL ([3]; 48 h)?
**A.** 119%

**Q.** And the viability at 1000 µg/mL ([3]; 48 h)?
**A.** 105%

**Q.** What about the cell proliferation [3, 8] of the same molecule?
**A.** 19%

**Q.** And the activation at 200 µg/mL ([4]; Homo sapiens, Fibroblast, HHDPC, 24 h, 0.2 mg/ml of 5% glycerine solution, increase vs negative control, read-out: % protein synthesis)?
**A.** 10.4%

**Q.** And the activation at 1000 µg/mL ([4]; Homo sapiens, Fibroblast, HHDPC, 24 h, increase vs negative control, read-out: % protein synthesis)?
**A.** 24.5%

**Q.** What about the activation at 1000 µg/mL ([4]; Homo sapiens, Fibroblast, HHDPC, 48 h, increase vs negative control, read-out: % protein synthesis) of the same molecule?
**A.** 16.8%

**Q.** What about the protein synthesis [4, 8] of the same molecule?
**A.** 24%

**Q.** And the mrna remaining at 0.01 % ([5]; 0.2 mg/ml of solution (stated as 0.01% HMR), vs untreated control, read-out: % 5a-reductase (ds) expression)?
**A.** 90.9%

**Q.** And the inhibition at 0.01 % ([5]; 0.2 mg/ml of solution (stated as 0.01% HMR), vs untreated control, read-out: % reduction)?
**A.** 9.07%

**Q.** And the inhibition at 0.05 % ([5]; 1 mg/ml of solution (stated as 0.05% HMR), 5α-reductase mRNA vs untreated control, read-out: % reduction)?
**A.** 57.1%

**Q.** What about the mrna remaining at 0.05 % ([5]; 1 mg/ml of solution (stated as 0.05% HMR), vs untreated control, read-out: % 5a-reductase (ds) expression) of the same molecule?
**A.** 42.9%

**Q.** What does the source list for `CCCCCCCCCCCCOS(=O)(=O)[O-].[Na+]` [SLS, sodium lauryl sulphate, reference compound]?
**A.** IL-1α Mean ([1]; 6 h, SLS 0.25% for 60 minutes, positive control): 22.92 pg/mL; IL-1α Mean ([1]; 24 h, SLS 0.25% for 60 minutes, positive control): 200.72 pg/mL; viability at 1 h ([2]; SLS 0.25% for 60 minutes, positive control, read-out: % average cell viability (ds)): 50%; viability ([2]; positive control (SLS 0.25%), test acceptability table): 50%
